From US10941384B2, “Compositions and methods for promoting the generation of endocrine cells” (President and Fellows of Harvard College, priority 2013, dated 2021)

Legend:
[1] = tested on: INS, GCG and SST transcripts (H1-derived pancreatic progenitors); assay: qRT-PCR of endocrine hormone transcripts (INS, GCG, SST); assay type: cell-based, human; settings: 3 day treatment
Text: FIGS. 3A-3D show PKC agonists block the formation of insulin-expressing cells. […] Wells were stained for insulin and cell number counted in representative portions of the well by the Cellomics high content screening system. Error bars represent s.d. Two-tailed T-test p<0.05. […] Endocrine induction is blocked by PKC agonist TPB and reversed by Bis1. […] P<0.001. The decrease in INS and GCG expression due to TPB treatment is reversed by BisI. […] P<0.001.
H1-derived pancreatic progenitors were treated for 3 days with DMSO or 3 μM BisI. qRT-PCR for INS, GCG and SST performed and shown as fold change over DMSO control.

[2] = tested on: HUES8 pancreatic progenitors; assay: Insulin cell number in HUES8 pancreatic progenitors in the presence of Noggin and Alk5 inhibitors; assay type: cell-based, human; settings: HUES8, 6 days, in the presence of Noggin and Alk5 inhibitor, versus DMSO
Text: FIGS. 1A-1K show high-content screens to increase the number of NGN3-expressing and insulin-expressing cells. FIG. 1A is a schematic showing the stepwise differentiation from hESCs to pancreatic endocrine cells. DE, definitive endoderm; PP, pancreatic progenitor; EP, endocrine progenitor; EN, endocrine cells. Scheme of high-content screen beginning with a population of cells that have differentiated into pancreatic progenitors. FIGS. 1B and 1F are schematic diagrams showing the method of high-content screen, which begins with a population of cells that have differentiated into pancreatic progenitors. FIGS. 1C and 1G show the chemical structures of a PKCβ inhibotor and Bisindolylmaleimide I compound identified from the screen. FIGS. 1D and 1H show an efficacy curve of the hit compounds. […] The hit compounds effect on HUES 8-pancreatic progenitor population. After 14 d of differentiation, the HUES 8-pancreatic progenitor populations were treated with 10 M PKCβ inhibitor for four days and then stained with NGN 3 antibody (green). NGN3, neurogenin 3. Scale bar is 100 m. […] Percentage of insulin-positive cells with s.d. […] The percentage of NGN3^+ cells was analyzed with the Cellomics high content screening system (Thermo Scientific). […] Insulin cell number with was counted over the same area in different wells. […]

[3] = tested on: Human C-peptide / insulin-expressing cells (H1-derived pancreatic progenitors); assay: High-content screen 2 and dose response: insulin-expressing cells by immunofluorescence (Cellomics); assay type: cell-based; settings: for auto-fluorescence and toxicity in dose-curve measurements: at 6.75 M and 27 M
Experimental: hESC culture and differentiation. Protocol 2. Human ESCs were routinely cultured on hESC-certified matrigel (BD Biosciences) in mouse embryonic fibroblast conditioned hES media (MEF-CM). MEF-CM media was produced by conditioning hESC media for […] on a confluent layer of mouse embryonic fibroblasts and subsequently adding 20 ng/ml bFGF (Invitrogen). hES media was composed of DMEM/F12 (GIBCO) media supplemented with 20% KnockOut Serum Replacement (GIBCO), 2 mM Lglutamine (L-Glu, GIBCO), 1.1 mM 2-mercaptoethanol (GIBCO), 1 mM nonessential amino acids (GIBCO), 1× penicillin/strepto-mycin (P/S,GIBCO). Cells were passaged at the ratio of 1:6-1:20 every 4-7 days using TrypLE Express (Invitrogen).
To initiate differentiation the cells were dissociated using TrypLE Express to single cells and seeded at 150,000 cell/cm2 onto 1:30 dilution of growth factor reduced matrigel (BD Biosciences) in DMEM/F12 in MEF-CM media with 10 μM Y27632 (StemGent). Two days following seeding the differentiation was started. Cells were exposed to RPMI 1640 (Invitrogen) supplemented with 2% reagent grade BSA (Proliant) and 20 ng/ml human Wnt3a (R&D Systems)+100 ng/ml rhActivinA (R&D Systems)+8 ng/ml bFGF (Invitrogen) for the first day (stage 1.1). During day 2 and 3 the dayl media was used with the exception of Wnt3a (stage 1.2). During days 4-5 cells were treated with RPMI+2% BSA+50 ng/ml FGF7 (Peprotech) (stage 2). For days 6-9 cells were treated with DMEM-HG (Invitrogen)+0.1% Albumax BSA (Invitrogen)+1:200 ITS-X (Invitrogen)+50 ng/ml FGF7 (Peprotech)+2 μM RA (Sigma)+0.25 μM SANT-1 (Sigma)+20 ng/ml rhActivinA (R&D Systems)+100 ng/ml rhNoggin (R&D Systems) (stage 3). During days 10-12 cells were treated with DMEM-HG (Invitrogen)+0.1% Albumax BSA (Invitrogen)+1:200 ITS-X (Invitrogen)+100 ng/ml rhNoggin (R&D Systems)+0.25 μM SANT-1 (Sigma)+100 nM PDBu (EMD Biosciences) (stage 4). During days 13-15 cells were treated with DMEM-HG (Invitrogen)+0.1% Albumax BSA (Invitrogen)+1:200 ITS-X (Invitrogen)+100 ng/ml rhNoggin (R&D Systems)+1 μM Alk5 inhibitor (Axxora) (stage 5). PKC inhibitor Bisindolylmaleimide I (VWR) was added during stage 5.
High-content screen 2. The compound libraries used for this study: 400 compounds, including bioactive molecules, natural products, and 400 compounds that are known modulators of development or signaling pathways. For the chemical screen the day 8 cells were dispersed into single cells, using TrypLE, and replated at 150,000 cells/well of a 96 well plate in the presence of stage 3 media and 10 μM Y27632. Compounds were added to the wells on day 10 in stage 4 media, then again on days 12 and 14 in stage 5 media. Media was changed every other day suing the treatment. Cells were fixed using 4% paraformaldehyde (PFA, Sigma) on day 15 and stained using mouse antiglucagon and rabbit anti-c-peptide antibodies.
Screen 2: Immunostaining. Following 4% PFA fixation, cells were 3×5 min washed in PBS and blocked with 10% donkey serum (Jackson Immunoresearch) in PBS/0.3% Triton X. Primary antibodies were incubated overnight at 4 C. Secondary antibodies were incubated for 1 hr at room temperature. […]

CC(C)[C@H]1C(=O)N[C@H](CO)Cc2cc(NC(=O)/C=C/C=C/c3ccc(C(F)(F)F)cc3)ccc2N1C [TPB, (2S,5S)-(E,E)-8-(5-(4-(trifluoromethyl)phenyl)-2,4-pentadienoylamino)benzolactam]
expression of endocrine hormones insulin and glucagon ([1]; 5 M TPB): decrease | effect on endocrine induction by Alk5 inhibitor (INS and GCG transcripts) ([1]; TPB combined with Alk5 inhibitor): sufficient to block the effect of Alk5 inhibitors on endocrine induction

CN(C)CCCn1cc(C2=C(c3c[nH]c4ccccc34)C(=O)NC2=O)c2ccccc21 [BisI, Bisindolylmaleimide I]
increase of the numbers of insulin-expressing cells [2]: up to 7.5 fold | insulin-expressing cells ([3]; 1 M BisI, 6 days, DMSO-treated controls 0.9 0.1%): up to 2.7 0.8% | EC50 ([3]; Homo sapiens, H1, with Noggin and Alk5 inhibitor, FIG. 1H, read-out: EC50, total number of insulin-expressing cells): 848 nM | auto-fluorescence and toxicity in dose-curve measurements [3]: Significant auto-fluorescence and toxicity | auto-fluorescence and toxicity in dose-curve measurements ([3]; listed as Bisindolylmaleimide I): considerable auto-fluorescence and toxicity | effect of TPB on INS and GCG expression in the presence of BisI ([1]; 3 M BisI + 5 M TPB): reversed

CCCC(=O)O[C@@H]1[C@@H](C)[C@@]2(O)[C@@H](C=C(CO)C[C@]3(O)C(=O)C(C)=C[C@@H]23)[C@@H]2C(C)(C)[C@]12OC(=O)CCC [PdBu, phorbol 12,13-dibutyrate]
decline in endocrine differentiation, number of insulin+ cells ([3]; three-day treatment of H1-derived pancreatic progenitors (FIG. 3A: 1 M, 6 days)): 3.7 fold
